Results from patent US20150152083A1, “Compounds and Compositions for Modulating EGFR Activity” (IRM LLC, A Delaware Limited Liability Company, priority 2012, published 2015).

Experiments:
EGFR (L858R) = molecular target: T1, EGFR (L858R) (Homo sapiens, UniProt P00533, L858R); test: EGFR target modulation in engineered NIH3T3 cell lines (phospho-EGFR AlphaLISA); type: cell-based; settings: NIH3T3 cells expressing human EGFR L858R; 3 hours compound
T1 construct: host or cells: NIH3T3
Description: (§1) EGFR Target Modulation in Engineered NIH3T3 Cell Lines
(§2) NIH3T3 cell lines expressing human EGFR (WT, L858R, and L858RT790M) (obtained from Matthew Meyerson's Lab at DFCI) were maintained in 10% FBS/DMEM supplemented with 100 μg/ml Penicillin/Streptomycin (Hyclone #SV30010) and 2 μg/ml Puromycin. The cells were harvested with 0.05% Trypsin/EDTA (Hyclone #SH30236.01), re-suspended in 5% FBS/DMEM Pen/Strep without Puromycin and plated at 9,000 cells per well in 50 μl of media in a 384-well black plate with clear bottoms (Greiner #789068G). The cells were allowed to incubate overnight in a 37° C., 5% CO2 humidified tissue culture incubator. A 12-point test compound curve was prepared by serial diluting a 10 μM stock 1:3 in DMSO in a 384-well compound plate (Greiner #789201L). The serial diluted compounds were transferred to the plate containing cells by using a 50 nl Pin Head device (Perkin Elmer) and the cells were placed back in the incubator for 3 hours. Only the EGFR WT-expressing cells were induced with 50 ng/ml EGF (Preprotech #AF-100-15) for 5 minutes before lysis. The media was removed and cells were lysed in 25 μl of Lysis buffer containing protease and phosphatase inhibitors (1% Triton X-100, 20 mM Tris, pH 7.5, 1 mM EDTA, 1 mM EGTA, 150 mM NaCl, 1× complete cocktail inhibitor (Roche #11 697 498 001), 1× Phosphatase Inhibitor Cocktail Set II and Set III (Sigma #P5726 and #P0044)). The plates were shaken at 4° C. for 5 minutes with foil top at maximum speed. An aliquot of 5 μl from each well was transferred to ProxiPlate™ 384-well Plus plates (PE #6008289). The plates were sealed with a foil top and frozen at −80° C. and thawed when needed.
(§3) The frozen aliquots were thawed and briefly centrifuged. All antibodies and beads were diluted in 1× AlphaLISA HiBlock Buffer (PE #AL004C). Biotinylated anti-phospho-EGFR (Y1068) (Cell Signaling #4031) was incubated with the lysate for 1 hour at room temperature at 1 nM final concentration. Goat anti-total EGFR (R&D Systems #AF231) was added and allowed to equilibrate for 1 hour at room temperature at 1 nM final concentration. Then, 10 μl of mixed beads (AlphaScreen Streptavidin Donor Beads (PE #6760002S) and AlphaLISA anti-goat IgG Acceptor Beads (PE #AL107C)) was equilibrated for 1.5 hours before reading on EnVision plate reader using the built-in settings for AlphaScreen.
(§4) Cells untreated (L858R and L858RT790M) or EGF-induced (WT) were set to 100% maximum response. For a negative control, 10 μM HKI-272 was used to normalize data to 0% of maximum response. With these parameters, the IC50's for each compound in each cell line was calculated using non-linear curve fitting analysis.

EGFR (WT) = molecular target: T2, EGFR (WT) (Homo sapiens, UniProt P00533); test: as above; type: cell-based; settings: NIH3T3 cells expressing human EGFR WT; 3 hours compound; induced with 50 ng/ml EGF
T2 construct: host or cells: NIH3T3
T2 sequence (P00533 25-1210): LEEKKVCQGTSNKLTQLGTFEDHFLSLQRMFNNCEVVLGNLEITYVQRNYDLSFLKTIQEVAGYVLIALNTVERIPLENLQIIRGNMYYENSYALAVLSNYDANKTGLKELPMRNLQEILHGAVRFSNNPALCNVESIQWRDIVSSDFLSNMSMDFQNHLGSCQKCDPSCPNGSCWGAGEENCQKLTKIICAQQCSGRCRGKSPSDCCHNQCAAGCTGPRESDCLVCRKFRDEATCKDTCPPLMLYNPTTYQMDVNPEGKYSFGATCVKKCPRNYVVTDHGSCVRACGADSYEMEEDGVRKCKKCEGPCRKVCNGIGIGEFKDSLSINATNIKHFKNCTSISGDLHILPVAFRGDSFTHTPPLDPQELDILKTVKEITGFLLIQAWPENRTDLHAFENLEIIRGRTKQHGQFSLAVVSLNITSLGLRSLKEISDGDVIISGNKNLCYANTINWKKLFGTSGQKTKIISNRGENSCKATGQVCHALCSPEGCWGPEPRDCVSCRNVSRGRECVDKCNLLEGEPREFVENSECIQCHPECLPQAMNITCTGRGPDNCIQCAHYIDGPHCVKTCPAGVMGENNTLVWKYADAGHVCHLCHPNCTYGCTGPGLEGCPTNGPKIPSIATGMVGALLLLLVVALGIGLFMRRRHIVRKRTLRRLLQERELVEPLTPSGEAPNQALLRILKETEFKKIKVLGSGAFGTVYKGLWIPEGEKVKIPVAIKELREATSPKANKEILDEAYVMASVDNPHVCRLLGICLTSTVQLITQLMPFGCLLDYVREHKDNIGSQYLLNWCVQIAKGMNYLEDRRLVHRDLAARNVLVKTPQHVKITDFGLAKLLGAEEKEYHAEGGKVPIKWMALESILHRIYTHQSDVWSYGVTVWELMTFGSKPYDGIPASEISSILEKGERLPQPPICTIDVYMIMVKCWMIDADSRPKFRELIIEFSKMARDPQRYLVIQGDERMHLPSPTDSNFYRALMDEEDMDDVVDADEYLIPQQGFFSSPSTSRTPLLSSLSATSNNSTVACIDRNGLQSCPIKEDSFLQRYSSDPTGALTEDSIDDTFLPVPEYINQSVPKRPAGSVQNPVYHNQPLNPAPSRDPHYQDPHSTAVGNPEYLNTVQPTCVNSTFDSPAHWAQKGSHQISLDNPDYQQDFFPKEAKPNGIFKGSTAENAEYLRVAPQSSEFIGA
Description: as §1, §2, §3, §4

EGFR(L858R/T790M) [1] = molecular target: T3, EGFR(L858R/T790M) (Homo sapiens, UniProt P00533, L858R/T790M); test: as above; type: cell-based; set-up: host or cells: NIH3T3; settings: NIH3T3 cells expressing human EGFR L858R/T790M; 3 hours compound
Description: as §1, §2, §3, §4
Target sequence in this assay (P00533 25-1210 T790M/L858R): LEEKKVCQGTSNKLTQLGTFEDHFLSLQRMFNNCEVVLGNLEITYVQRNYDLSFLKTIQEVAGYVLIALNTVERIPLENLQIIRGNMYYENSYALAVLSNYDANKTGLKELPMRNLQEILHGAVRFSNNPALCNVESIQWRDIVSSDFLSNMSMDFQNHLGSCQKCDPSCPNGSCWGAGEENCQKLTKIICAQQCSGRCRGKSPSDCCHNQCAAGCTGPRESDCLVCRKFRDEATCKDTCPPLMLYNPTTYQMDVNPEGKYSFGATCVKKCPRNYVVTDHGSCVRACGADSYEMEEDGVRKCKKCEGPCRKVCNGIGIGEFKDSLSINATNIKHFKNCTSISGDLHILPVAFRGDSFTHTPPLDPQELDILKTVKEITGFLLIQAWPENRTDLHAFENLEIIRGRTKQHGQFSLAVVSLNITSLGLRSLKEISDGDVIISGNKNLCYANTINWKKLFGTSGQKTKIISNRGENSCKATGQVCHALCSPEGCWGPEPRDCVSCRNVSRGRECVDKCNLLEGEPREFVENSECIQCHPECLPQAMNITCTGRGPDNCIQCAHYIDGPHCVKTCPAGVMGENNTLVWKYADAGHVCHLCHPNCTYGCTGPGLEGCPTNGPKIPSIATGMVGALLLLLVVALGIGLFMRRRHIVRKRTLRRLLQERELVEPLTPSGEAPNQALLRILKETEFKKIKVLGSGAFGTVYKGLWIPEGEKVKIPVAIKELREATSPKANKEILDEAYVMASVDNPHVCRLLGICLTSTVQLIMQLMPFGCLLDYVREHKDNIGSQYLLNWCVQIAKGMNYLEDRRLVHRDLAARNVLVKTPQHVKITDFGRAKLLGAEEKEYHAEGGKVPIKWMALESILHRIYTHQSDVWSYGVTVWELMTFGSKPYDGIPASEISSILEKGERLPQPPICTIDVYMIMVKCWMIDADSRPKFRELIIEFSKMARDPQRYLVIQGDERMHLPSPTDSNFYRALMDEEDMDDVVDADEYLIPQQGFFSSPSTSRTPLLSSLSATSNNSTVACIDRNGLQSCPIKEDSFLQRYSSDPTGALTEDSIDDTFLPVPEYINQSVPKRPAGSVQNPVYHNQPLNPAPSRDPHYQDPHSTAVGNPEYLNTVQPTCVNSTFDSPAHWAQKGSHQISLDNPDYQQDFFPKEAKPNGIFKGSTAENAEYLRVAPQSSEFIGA

EGFR(L858R/T790M) [2] = molecular target: T3, EGFR(L858R/T790M); test: EGFR biochemical assay (HTRF), IC50 determination; set-up: purchased from Carna (GST-a.a. 669-1210); purchased Carna; settings: 10 μM ATP
Description: All EGFR biochemical assays were carried out by HTRF method. The EGFR(L858RT790M) enzyme were purchased from Carna (GST-a.a. 669-1210). The substrate peptide Biotin-TK-peptide was purchased from Cis-Bio. The reaction mixtures contained 1 μM peptide substrate, 10 μM ATP, and 0.036 nM EGFR(L858RT790M) in the reaction buffer (50 mM HEPES pH 7.1, 10 mM MgCl2, 0.01% BSA, 1 mM TCEP and 0.1 mM Na3VO4) at a final volume of 10 μL. All reactions were carried out at room temperature in white ProxiPlate™ 384-well Plus plates (PerkinElmer) and were quenched with 5 μL of 0.2 M EDTA at 60 min Five μL of the detection reagents (2.5 ng PT66K and 0.05 μg SAXL per well) were added, the plates were incubated at room temperature for 1 h and then read in EnVision reader. […] For no-preincubation condition, the compounds were added to the assay solution containing ATP and peptide, and the reaction was initiated by addition of enzyme. For pre-incubation conditions, the compounds were added to the assay solution containing enzyme and peptide, and pre-incubated at room temperature for desired period of time, then the reaction was initiated by addition of ATP.
Target sequence in this assay (P00533 669-1210 T790M/L858R): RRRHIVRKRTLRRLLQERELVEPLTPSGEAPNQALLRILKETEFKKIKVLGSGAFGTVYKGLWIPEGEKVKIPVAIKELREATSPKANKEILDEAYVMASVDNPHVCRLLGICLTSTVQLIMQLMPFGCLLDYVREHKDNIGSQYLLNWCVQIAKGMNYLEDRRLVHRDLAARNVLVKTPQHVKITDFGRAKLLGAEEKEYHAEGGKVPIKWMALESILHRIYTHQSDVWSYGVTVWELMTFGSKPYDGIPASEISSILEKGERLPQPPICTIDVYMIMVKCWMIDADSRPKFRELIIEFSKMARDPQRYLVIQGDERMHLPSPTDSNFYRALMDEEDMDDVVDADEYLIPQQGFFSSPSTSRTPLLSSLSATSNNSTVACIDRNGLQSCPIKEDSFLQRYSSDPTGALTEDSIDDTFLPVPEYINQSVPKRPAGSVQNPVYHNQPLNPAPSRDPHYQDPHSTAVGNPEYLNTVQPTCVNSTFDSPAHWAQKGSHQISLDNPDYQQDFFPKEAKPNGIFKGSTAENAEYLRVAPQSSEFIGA

[3] = EGFR (L858R/T790M) IC50 (μM) 90 min pre-incubation, 90 min pre-incubation
[4] = no pre-incubation, read-out: EGFR (L858R/T790M) IC50 (μM) No pre-incubation

T1 sequence (P00533 25-1210 L858R): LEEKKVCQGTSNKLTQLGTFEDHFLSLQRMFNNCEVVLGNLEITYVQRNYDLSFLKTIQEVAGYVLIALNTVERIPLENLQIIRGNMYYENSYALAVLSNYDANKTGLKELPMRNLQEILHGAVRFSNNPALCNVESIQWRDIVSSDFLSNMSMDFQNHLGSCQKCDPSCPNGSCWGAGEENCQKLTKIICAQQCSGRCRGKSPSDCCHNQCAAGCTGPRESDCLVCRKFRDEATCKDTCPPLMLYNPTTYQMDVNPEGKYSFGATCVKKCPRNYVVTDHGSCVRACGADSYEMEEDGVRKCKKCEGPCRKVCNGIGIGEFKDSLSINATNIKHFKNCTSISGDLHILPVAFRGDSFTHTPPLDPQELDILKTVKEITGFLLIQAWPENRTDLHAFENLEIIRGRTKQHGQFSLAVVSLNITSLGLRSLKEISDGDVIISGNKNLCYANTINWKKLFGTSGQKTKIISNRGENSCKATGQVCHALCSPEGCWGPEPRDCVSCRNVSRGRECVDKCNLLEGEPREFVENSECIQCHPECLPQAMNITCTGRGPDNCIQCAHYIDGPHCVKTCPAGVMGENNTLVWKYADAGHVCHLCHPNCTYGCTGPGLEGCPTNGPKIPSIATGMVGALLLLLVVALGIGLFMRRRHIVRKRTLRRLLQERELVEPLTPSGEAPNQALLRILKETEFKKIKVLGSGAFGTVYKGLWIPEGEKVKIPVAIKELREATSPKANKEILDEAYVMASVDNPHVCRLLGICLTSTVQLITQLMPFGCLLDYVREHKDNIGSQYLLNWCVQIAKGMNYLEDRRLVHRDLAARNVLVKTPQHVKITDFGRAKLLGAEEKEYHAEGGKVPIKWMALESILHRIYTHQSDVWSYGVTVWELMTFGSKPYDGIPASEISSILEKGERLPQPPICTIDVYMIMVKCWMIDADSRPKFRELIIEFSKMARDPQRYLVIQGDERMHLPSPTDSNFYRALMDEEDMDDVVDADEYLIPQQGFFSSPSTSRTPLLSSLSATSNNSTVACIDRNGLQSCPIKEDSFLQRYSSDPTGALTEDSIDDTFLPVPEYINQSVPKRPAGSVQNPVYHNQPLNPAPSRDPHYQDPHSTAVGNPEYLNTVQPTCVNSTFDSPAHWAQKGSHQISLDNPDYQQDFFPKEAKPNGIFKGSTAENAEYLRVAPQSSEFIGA

Row | SMILES | IC50 (EGFR (L858R)) [µM] | IC50 (EGFR (WT)) [µM] | IC50 (EGFR(L858R/T790M) [1]) [µM] | IC50 (EGFR(L858R/T790M) [2]; [3]) [µM] | IC50 (EGFR(L858R/T790M) [2]; [4]) [µM]
1 | C=CC(=O)N[C@@H]1CCC[C@@H](n2c(NC(=O)c3cccc(C(F)(F)F)c3)nc3cc(C)ccc32)C1 (racemic) [Example 8-2, N-{5-methyl-1-[(1S,3S)-3-(prop-2-enamido)cyclohexyl]-1H-1,3-benzodiazol-2-yl}-3-(trifluoromethyl)benzamide] | > 3.7 | > 10 | 0.41 | 0.051 | 0.27
2 | C=CC(=O)Nc1cccc(-n2c(NC(=O)c3ccc(F)cc3)nc3cc(C)ccc32)c1 [Example 1, N-(1-(3-acrylamidophenyl)-5-methyl-1H-benzo[d]imidazol-2-yl)-4-fluorobenzamide] | 0.053 | > 10 | 0.037 | 0.002 | 0.016
3 | C=CC(=O)Nc1cccc(-n2c(NC(=O)c3cccc(F)c3)nc3cc(C)ccc32)c1 [Example 2-1, 3-fluoro-N-{5-methyl-1-[3-(prop-2-enamido)phenyl]-1H-1,3-benzodiazol-2-yl}benzamide] | 0.33 | > 10 | 0.028 | 0.003 | 0.023
4 | C=CC(=O)Nc1cccc(-n2c(NC(=O)c3ccc(F)c(F)c3)nc3cc(C)ccc32)c1 [Example 2-2, 3,4-difluoro-N-{5-methyl-1-[3-(prop-2-enamido)phenyl]-1H-1,3-benzodiazol-2-yl}benzamide] | 0.2 | > 10 | 0.08 | 0.002 | 0.054
5 | C=CC(=O)Nc1cccc(-n2c(NC(=O)c3ccc(C)cc3)nc3cc(C)ccc32)c1 [Example 2-3, 4-methyl-N-{5-methyl-1-[3-(prop-2-enamido)phenyl]-1H-1,3-benzodiazol-2-yl}benzamide] | 0.77 | > 10 | 0.98 | 0.034 | 0.39
6 | C=CC(=O)Nc1cccc(-n2c(NC(=O)c3ccc(Cl)c(Cl)c3)nc3cc(C)ccc32)c1 [Example 2-4, 3,4-dichloro-N-{5-methyl-1-[3-(prop-2-enamido)phenyl]-1H-1,3-benzodiazol-2-yl}benzamide] | 0.33 | > 10 | 0.22 | 0.023 | 0.27
7 | C=CC(=O)Nc1cccc(-n2c(NC(=O)c3cccc(C)c3)nc3cc(C)ccc32)c1 [Example 2-5, 3-methyl-N-{5-methyl-1-[3-(prop-2-enamido)phenyl]-1H-1,3-benzodiazol-2-yl}benzamide] | 1.3 | > 10 | 0.17 | 0.012 | 0.14
8 | C=CC(=O)Nc1cccc(-n2c(NC(=O)c3cccc(Oc4ccccc4)c3)nc3cc(C)ccc32)c1 [Example 2-6, N-{5-methyl-1-[3-(prop-2-enamido)phenyl]-1H-1,3-benzodiazol-2-yl}-3-phenoxybenzamide] | 0.27 | > 10 | 0.062 | < 0.001 | 0.021
9 | C=CC(=O)Nc1cccc(-n2c(NC(=O)c3cccc(-c4ccccc4)c3)nc3cc(C)ccc32)c1 [Example 2-7, N-{5-methyl-1-[3-(prop-2-enamido)phenyl]-1H-1,3-benzodiazol-2-yl}-3-phenylbenzamide] | 0.023 | > 10 | 0.007 | < 0.001 | 0.006
10 | C=CC(=O)Nc1cccc(-n2c(NC(=O)c3ccc4ccccc4c3)nc3cc(C)ccc32)c1 [Example 2-8, N-{5-methyl-1-[3-(prop-2-enamido)phenyl]-1H-1,3-benzodiazol-2-yl}naphthalene-2-carboxamide] | 0.64 | > 10 | 0.38 | 0.013 | 0.18
11 | C=CC(=O)Nc1cccc(-n2c(NC(=O)c3cccc(C(F)(F)F)c3)nc3cc(C)ccc32)c1 [Example 2-9, N-{5-methyl-1-[3-(prop-2-enamido)phenyl]-1H-1,3-benzodiazol-2-yl}-3-(trifluoromethyl)benzamide] | 0.55 | > 10 | 0.052 | 0.006 | 0.049
12 | C=CC(=O)N(C)c1cccc(-n2c(NC(=O)c3cccc(C(F)(F)F)c3)nc3cc(C)ccc32)c1 [Example 2-10, N-{5-methyl-1-[3-(N-methylprop-2-enamido)phenyl]-1H-1,3-benzodiazol-2-yl}-3-(trifluoromethyl)benzamide] | 0.66 | > 8 | 0.11 | 0.003 | 0.085
13 | C=CC(=O)Nc1cccc(-n2c(NC(=O)c3cccc(C(F)(F)F)c3)nc3cccc(C)c32)c1 [Example 2-13, N-{7-methyl-1-[3-(prop-2-enamido)phenyl]-1H-1,3-benzodiazol-2-yl}-3-(trifluoromethyl)benzamide] | 0.31 | > 10 | 0.079 | 0.004 | 0.057
14 | C=CC(=O)Nc1cccc(-n2c(NC(=O)c3cccc(C(F)(F)F)c3)nc3cc(CO)ccc32)c1 [Example 3, N-(1-(3-acrylamidophenyl)-5-(hydroxymethyl)-1H-benzo[d]imidazol-2-yl)-3-(trifluoromethyl)benzamide] | 0.45 | > 10 | 0.036 | 0.003 | 0.028
15 | C=CC(=O)Nc1cccc(-n2c(NC(=O)c3cccc(C(F)(F)F)c3)nc3cc(COCC)ccc32)c1 [Example 4, N-(1-(3-acrylamidophenyl)-5-(ethoxymethyl)-1H-benzo[d]imidazol-2-yl)-3-(trifluoromethyl)benzamide] | 1.1 | > 10 | 0.1 | 0.005 | 0.071
16 | C=CC(=O)Nc1cccc(-n2c(NC(=O)c3cccc(C(F)(F)F)c3)nc3cc(COC)ccc32)c1 [Example 5-1, N-[5-(methoxymethyl)-1-[3-(prop-2-enamido)phenyl]-1H-1,3-benzodiazol-2-yl]-3-(trifluoromethyl)benzamide] | 0.86 | > 10 | 0.02 | < 0.001 | 0.022
17 | C=CC(=O)Nc1cccc(-n2c(NC(=O)c3cccc(C(F)(F)F)c3)nc3cc(CN4CCCC4)ccc32)c1 [Example 5-2, N-[1-[3-(prop-2-enamido)phenyl]-5-(pyrrolidin-1-ylmethyl)-1H-1,3-benzodiazol-2-yl]-3-(trifluoromethyl)benzamide] | 0.18 | > 10 | 0.013 | 0.007 | 0.039
